Measurements taken from US20230105108A1, “COMPOUNDS FOR THE TREATMENT OF BACTERIAL INFECTIONS AND POTENTIATION OF ANTIBIOTICS” (GEORGIA STATE UNIVERSITY RESEARCH FOUNDATION, INC., priority 2019, published 2023).
Entries after “also recorded” stand apart in the source; their conditions may differ. Where a name gives a salt, the structure may show the parent alone. Read-outs that look alike come from different tables or passages of the source. Marks after values point to notes of the source that are not given here.

Key:
Format in all cases: cell-based
E. coli (ATCC 25922) = assay: MIC determination, sensitization fold and FIC index on E. coli; conditions: for MIC: Escherichia coli
Summary of the method: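 E. coli in cation-adjusted Mueller Hinton II, 5×10^5 CFU/ml, 24 h at 37 °C shaking; rifampicin two-fold serial dilutions with or without fixed sensitizer (10 μM).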

E. coli strain NR698 = assay: Sensitization of outer membrane leaky E. coli strain NR698
Description: Ery is short for erythromycin. […] E. coli NR698 was cultured with the antibiotic at various concentrations in the presence or absence of bacterial sensitizer for 24 h at 37° C. Then bacterial growth density was determined by measuring OD600. […] Then the growth density/% was calculated based on OD600.
Bacteria culture and MICs determination: Gram-negative bacteria were cultured in Mueller Hinton II cation-adjusted broth. Gram-positive bacteria were cultured in LB broth. Mycobacterium smegmatis was cultured in Middlebrook 7H9 Broth. MICs of antibiotics itself were determined by performing two-fold serial dilutions of antibiotics. MICs of antibiotics in the presence of bacterial sensitizers were determined by performing two-fold serial dilutions of antibiotics with or without a constant concentration of bacterial sensitizers. The MICs tests were performed on 96-well plates with a final volume of 200 μl Mueller Hinton II cation-adjusted broth in each well. Each well was inoculated with 5×10^5 CFU/ml bacteria and was incubated for 24 h at 37° C. with continuous shaking of 200 rpm. The bacterial density was then determined by OD600. Bacterial growth %=OD600 of antibiotic treatment group/OD600 of antibiotic non-treatment group. MICs was determined as the concentrations that inhibit more than 90% of bacteria growth.

[1] = Cytotoxicity in H9c2 cells (CCK-8); conditions: rat, H9c2 cells; H9c2 cell line
Summary of the method: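 H9c2 cells were grown in DMEM with 10% FBS, seeded the day before, and exposed to a range of di-amidine concentrations for 24 h at 37 °C, 5% CO2. Viability was read by CCK-8 after 3 h at 37 °C as absorbance at 450 nm.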

NIH3T3 cells = assay: Cytotoxicity on mammalian cells (CCK-8), NIH3T3; conditions: 3T3 cell line; 24 h
Summary of the method: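 Cells seeded a day ahead to ~80% confluency, exposed to varied compound concentrations for 24 h at 37° C, 5% CO2. CCK-8 added for a further 2 h and OD 450 nm read; viability expressed as percent of untreated control.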

E. coli [2] = assay: Lysozyme assay (outer membrane disruption); conditions: for bacterial lysis by lysozyme in the presence of sensitizer: 50 μg/ml lysozyme, 10 min; for bacterial lysis by sensitizer itself: absence of lysozyme
Description: Lysozyme assay to evaluate the disruption of Gram-negative bacteria out membrane by bacterial sensitizers. Lysozyme assay was performed based on literature reported method. E. coli was cultured in Mueller Hinton II cation-adjusted broth for overnight, centrifuged at 3000 g for 10 min, washed with HEPES buffer (pH=7.2) and then centrifuged again to obtain bacteria pallet. The pallet was then gently resuspended in HEPES buffer with 5 mM NaCN to obtain an E. coli suspension with OD600 between 0.8˜1.0. On a 96-well plate, each well was supplied with 100 μl lysozyme solution (100 μg/ml) containing 50 or 100 μg/ml bacterial sensitizers in HEPES buffer. To each well was added 100 μl E. coli suspension. The final concentration of lysozyme was 50 μg/ml. The plate was incubated at room temperature for 10 min and the OD600 was recorded. E. coli was also incubated with bacterial sensitizers in the absence of lysozyme to test if bacterial sensitizers would directly induce bacterial lysis. E. coli that was incubated with lysozyme alone or E. coli without any treatment were also used as negative control.

E. coli [3] = assay: Influence of exogenous LPS and Mg2+ on bacterial sensitizer; conditions: for effect of extra LPS in culture media on sensitization: LPS 0 to 40 μM; for effect of Mg2+ on sensitization activity: exogenous Mg2+; for Sensitization fold: rifampicin
Description: The MICs of bacterial sensitizer and antibiotic combination in the presence of LPS (ranging from 0 to 40 μM) or Mg^2+ (ranging from 0 to 20 mM) was determined as described above (Bacteria culture and MICs determination section).
Various experiments were then conducted to examine the molecular target(s). […] Briefly, E. coli was treated with 5 μg/ml MD-124 (about 10 μM) with varying concentrations of LPS (from 0 to 40 μM) for 20 h. Then OD600 was measured.
Briefly, E. coli was treated with […] MD-124 (about 10 μM) with varying concentrations of Mg^2+ (from 0 to 15 mM) for 20 h. Then OD600 was measured.

[4] = 10 μM compound, rifampicin as the antibiotic (Table 6)
[5] = E. coli, rifampicin, compound at 10 μM

## Cc1cc(COc2ccc(C(=N)N)cc2)cc(COc2ccc(C(=N)N)cc2)c1 [MD-100, 4,4′-(((5-methyl-1,3-phenylene)bis(methylene))bis(oxy))dibenzimidamide dihydrochloride]
E. coli (ATCC 25922); [4]
  Sensitization fold: 8 fold
E. coli (ATCC 25922); E. coli, rifampicin, 10 μg/ml bacterial sensitizer
  Sensitization fold: 32^a fold
E. coli (ATCC 25922); [5]
  Sensitization fold: 8-fold at 10 μM
E. coli (ATCC 25922); E. coli, rifampicin, compound at 25 μM
  Sensitization fold: 32-fold at 25 μM
E. coli (ATCC 25922); ATCC25922, 24 h
  MIC: 100 µM
E. coli (ATCC 25922); wild-type E. coli towards erythromycin, 10 μg/ml MD-100
  Sensitization fold: 32 fold
E. coli strain NR698; erythromycin, MD-100, 24 h
  sensitization of E. coli strain NR698: failed to sensitize
[1]
  CC50 at 24 h: 50 µM
NIH3T3 cells
  CC50: 100 µM
E. coli [2]; 50 μg/ml sensitizer
  bacterial lysis by lysozyme in the presence of sensitizer: quick bacterial lysis
E. coli [2]
  bacterial lysis by sensitizer itself: did not lead to bacterial lysis
E. coli [3]
  effect of extra LPS in culture media on sensitization: abolished the sensitization effect
  effect of Mg2+ on sensitization activity: decreased the sensitization ability

## N=C(N)c1ccc(COc2cc(OCc3ccc(C(=N)N)cc3)cc(C(F)(F)F)c2)cc1 [MD-124, 4,4′-(((5-(trifluoromethyl)-1,3-phenylene)bis(oxy))bis(methylene)) dibenzimidamide dihydrochloride]
E. coli (ATCC 25922); [4]
  Sensitization fold: 512 fold
E. coli (ATCC 25922); E. coli toward rifampicin, ~10 μg/ml MD-124
  Sensitization fold (checkerboard assay): over 16,000 fold
E. coli (ATCC 25922); E. coli, 5 μg/ml compound alone, no antibiotic, dihydrochloride
  effect on bacterial growth (OD600 at different time points): no bacterial the growth inhibition effect; also recorded: no effect on bacterial growth
E. coli (ATCC 25922); E. coli, rifampicin, 5 μg/ml bacterial sensitizer
  Sensitization fold: 512 fold
E. coli (ATCC 25922); [5]
  Sensitization fold: 512-fold at 10 μM
E. coli (ATCC 25922); ATCC25922, 24 h, E. coli, compound alone, read-out: MIC
  MIC: 100 µM
E. coli (ATCC 25922); ATCC25922, E. coli, read-out: MIC of MD-124 itself
  MIC: 50 µg/mL
E. coli (ATCC 25922); wild type E. coli towards rifampin, 3 μg/ml MD-124
  Sensitization fold: 16 fold
E. coli (ATCC 25922); wild-type E. coli towards clarithromycin, 5 μg/ml sensitizer
  Sensitization fold: 256 fold
E. coli strain NR698; E. coli NR698 towards clarithromycin, 5 μg/ml sensitizer
  Sensitization fold: 4 fold
[1]
  CC50 at 24 h: 50 µM
NIH3T3 cells
  CC50: 100 µM
E. coli [2]; 25 μg/ml sensitizer
  bacterial lysis by lysozyme in the presence of sensitizer: quick bacterial lysis
E. coli [2]
  bacterial lysis by sensitizer itself: did not lead to bacterial lysis
E. coli [3]; LPS 0 μM, rifampicin only 10 μg/ml
  MIC of rifampicin with 5 μg/ml MD-124: 0.02
E. coli [3]
  effect of extra LPS in culture media on sensitization: abolished the sensitization effect
  effect of Mg2+ on sensitization activity: dampened the bacterial sensitization activity
E. coli [3]; LPS 5 μM
  MIC of rifampicin with 5 μg/ml MD-124: 2.5
E. coli [3]; LPS 10 μM
  MIC of rifampicin with 5 μg/ml MD-124: 2.5
E. coli [3]; LPS 20 μM
  MIC of rifampicin with 5 μg/ml MD-124: 5
E. coli [3]; LPS 40 μM
  MIC of rifampicin with 5 μg/ml MD-124: 5
E. coli [3]; LPS […]
  MIC of rifampicin with 5 μg/ml MD-124: 1.25
E. coli [3]; Mg2+ 0 mM, rifampicin only 10 μg/ml
  MIC of rifampicin with 5 μg/ml MD-124: 0.02
E. coli [3]; Mg2+ 1.25 mM
  MIC of rifampicin with 5 μg/ml MD-124: 0.02
E. coli [3]; Mg2+ 5 mM
  MIC of rifampicin with 5 μg/ml MD-124: 1.25
E. coli [3]; Mg2+ 10 mM
  MIC of rifampicin with 5 μg/ml MD-124: 2.5
E. coli [3]; Mg2+ 15 mM
  MIC of rifampicin with 5 μg/ml MD-124: 5
E. coli [3]; Mg2+ […]
  MIC of rifampicin with 5 μg/ml MD-124: 0.04
E. coli [3]; 5 μg/ml MD-124, LPS 0 μM
  Sensitization fold: 512 fold
E. coli [3]; 5 μg/ml MD-124, LPS 5 μM
  Sensitization fold: 4 fold
E. coli [3]; 5 μg/ml MD-124, LPS 10 μM
  Sensitization fold: 4 fold
E. coli [3]; 5 μg/ml MD-124, LPS 20 μM
  Sensitization fold: 2 fold
E. coli [3]; 5 μg/ml MD-124, LPS 40 μM
  Sensitization fold: 2 fold
E. coli [3]; 5 μg/ml MD-124, LPS […]
  Sensitization fold: 8 fold
E. coli [3]; 5 μg/ml MD-124, Mg2+ 0 mM
  Sensitization fold: 512 fold
E. coli [3]; 5 μg/ml MD-124, Mg2+ 5 mM
  Sensitization fold: 8 fold
E. coli [3]; 5 μg/ml MD-124, Mg2+ 10 mM
  Sensitization fold: 4 fold
E. coli [3]; 5 μg/ml MD-124, Mg2+ 15 mM
  Sensitization fold: 2 fold
E. coli [3]; 5 μg/ml MD-124, Mg2+ […]
  Sensitization fold: 256 fold
